Assay in all cases: MIC, agar dilution test
Holding throughout (assay type): cell-based
(In agar dilution, organisms are placed on agar that contains the substance at set levels.)

One assay deals with E. coli Neumann. The following applies: Escherichia coli, Isosensitest medium, Denley multipoint inoculator. The text has this: (§1) Agar dilution test (Isosensitest medium); Denley multi-
In the next assay the test system is Klebsiella 8085. The following applies: Isosensitest medium, Denley multipoint inoculator.
Source text: as §1

For the next assay, the system named is E. coli T 7. The note with it: Escherichia coli, T7, Isosensitest medium, Denley multipoint inoculator.
Source text: as §1

Another assay has as its system E. coli A 261. The following applies: Escherichia coli, A261, Isosensitest medium, Denley multipoint inoculator.
Source text: as §1

≈ marks a conversion by molar mass, not a printed value.

For the compound `CC1(C)COc2c(N3CCNCC3)c(F)cc3c(=O)c(C(=O)O)cn1c23` [Example 7], the minimal inhibitory concentration (MIC) (commonly the smallest concentration in the dilution series that meets the test's criterion for growth inhibition) was 1 µg/mL (≈ 2.77 µM) with E. coli Neumann, 0.25 µg/mL (≈ 0.692 µM) with Klebsiella 8085, 0.5 µg/mL (≈ 1.38 µM) against E. coli T 7 and 0.125 µg/mL (≈ 0.346 µM) against E. coli A 261.
For `CN1CCN(c2c(F)cc3c(=O)c(C(=O)O)cn4c3c2OC2CCCC24)CC1` (centres unmarked) [Example 3], the MIC against E. coli Neumann, against Klebsiella 8085, in the assay with E. coli T 7 and against E. coli A 261 was 2 µg/mL (≈ 5.16 µM) throughout.

The values are drawn from patent US4847375A, “Antibacterial 1,8-bridged 4-quinoline-3-carboxylic acids” (Bayer Aktiengesellschaft, priority 1985, dated 1989).
